The target in data set [1] is ERK1 (Homo sapiens (Human), UniProt P27361). Description: In vitro ERK1 kinase activity assay (33P-ATP, filter-binding). The data set is classed as biochemical. As to the method:
(§1) The ability of compounds to inhibit ERK1 and ERK2 kinase activity was measured.
(§2) 20 mM Hepes (pH 7.5), 10 mM MgCl2, 1 mM ethylenebis(oxyethylenenitrilo)tetraacetic acid (EGTA), 0.02% Brij35, 0.02 mg/mL bovine serum albumin (BSA), 0.1 mM Na3VO4, 2 mM dithiothreitol (DTT), 1% DMSO.
(§3) The assay compound was dissolved in 100% DMSO to prepare a stock solution of specific concentration. The compound was serially diluted in DMSO solution using Integra Viaflo Assist smart pipette.
(§4) • a) The substrate MBP was prepared in freshly prepared reaction buffer; • b) ERK1 (or ERK2) kinase was added to the above-mentioned MBP solution and mixed gently; • c) The compound dissolved in 100% DMSO was added to the kinase reaction system using ultrasound technology (Echo550; nanoliter range), and the mixture was incubated at room temperature for 20 minutes; • d)^33P-ATP (specific concentration of […]) was added to the reaction system, and the reaction was started at this time; • e) The mixture was incubated at room temperature for 2 hours; • f) The amount of radioactivity was detected by filter-binding method; • g) ERK1 (or ERK2) kinase activity was calculated as the ratio of the remaining kinase activity in the assay sample to the kinase activity of the control group (treated by DMSO).
(§5) Curve was fitted using Prism (GraphPad software) and IC50 values were calculated.

Data set [2] has as its target ERK2 (Homo sapiens (Human), UniProt P28482). Description: In vitro ERK2 kinase activity assay (33P-ATP, filter-binding). Format: biochemical. The protocol:
as §1, §2, §3, §4, §5

Data set [3] has as its system human plasma albumin. Description: Plasma protein binding (PPB), human plasma. Format: in vitro ADME. The conditions noted are these: ultracentrifugation, 37° C., 4 h. As to the method: (§6) The binding degree of the assay compound to human/mouse/rat/canine/monkey plasma albumin was studied.
(§7) • 1) Matrix preparation: on the day of the assay, plasma was thawed in cold water and centrifuged at 3220 rpm for 5 min to remove all clots. The pH of the resulting plasma was measured and adjusted to 7.4±0.1 using 1% phosphoric acid or 1N sodium hydroxide as needed. • 2) Dilution procedure for the assay compound: the assay compound was dissolved in dimethyl sulfoxide (DMSO) to prepare stock solutions with concentrations of 10 mM and 2 mM, respectively. A 40 μM working solution was prepared by diluting 2 μL of stock solution (2 mM) with 98 μL of DMSO. A 400 μM working solution of the control compound was prepared by diluting 10 μL of stock solution with 240 μL of DMSO. The working solution of the compound (5 μL) was mixed well with a blank matrix (995 μL) at a ratio of 1:200 to prepare a loading matrix.
(§8) • a) An equal volume of 30 μL of loading matrix (n=2) was transferred to a sample collection plate to prepare a time 0 (TO) sample for residue determination. The sample was immediately matched with the corresponding blank buffer to a final volume of 60 μL, and the volume ratio of plasma to buffer in each well was 1:1. […] The mixture was centrifuged at 4000 rpm for 20 min and 100 μL of supernatant from each sample was analyzed by LC-MS/MS.

Data set [4] deals with mouse plasma albumin. Description: Plasma protein binding (PPB), mouse plasma. The data set is classed as in vitro ADME. The conditions noted are these: ultracentrifugation, 37° C., 4 h. The protocol:
as §6, §7, §8

Each structure is given as a SMILES string.

One may read the IC50 as the point on the concentration scale where inhibition reaches its midpoint. Lower therefore signals higher potency.

Chain of ERK2 (P28482 whole entry): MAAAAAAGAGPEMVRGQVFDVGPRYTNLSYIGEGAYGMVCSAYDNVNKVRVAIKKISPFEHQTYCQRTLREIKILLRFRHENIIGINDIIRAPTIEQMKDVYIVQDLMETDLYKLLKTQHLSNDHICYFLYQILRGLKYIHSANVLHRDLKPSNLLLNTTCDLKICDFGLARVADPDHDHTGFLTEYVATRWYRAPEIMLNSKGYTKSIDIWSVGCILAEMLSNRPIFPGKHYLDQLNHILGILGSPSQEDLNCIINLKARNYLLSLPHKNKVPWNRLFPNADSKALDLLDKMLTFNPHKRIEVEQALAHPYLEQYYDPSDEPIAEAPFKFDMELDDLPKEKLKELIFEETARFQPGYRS
Chain of ERK1 (P27361 whole entry): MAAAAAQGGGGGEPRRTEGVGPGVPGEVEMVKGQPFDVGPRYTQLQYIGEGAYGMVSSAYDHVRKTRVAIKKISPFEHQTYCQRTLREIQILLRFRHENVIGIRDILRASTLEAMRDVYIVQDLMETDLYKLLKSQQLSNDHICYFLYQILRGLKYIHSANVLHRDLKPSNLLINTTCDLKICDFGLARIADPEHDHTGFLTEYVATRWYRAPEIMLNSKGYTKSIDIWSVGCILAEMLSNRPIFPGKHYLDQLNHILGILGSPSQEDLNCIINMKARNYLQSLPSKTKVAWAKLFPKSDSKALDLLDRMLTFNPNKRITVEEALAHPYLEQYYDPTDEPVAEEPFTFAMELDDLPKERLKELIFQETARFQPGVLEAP

For `Cc1cccc(CN2C(=O)c3nc(-c4nc(Nc5ccnn5C)ncc4C)sc3C2(C)C)n1` [WX001], the IC50 in data set [1] worked out at 1200 pM; in data set [2], 490 pM. For the same compound, the “Plasma protein binding rate (unbound %)” value was determined as 6.1% in data set [3] and 7.2% in data set [4].

The values are drawn from patent publication US20240300975A1, “DIMETHYL-SUBSTITUTED THIAZOLOLACTAM COMPOUND AND USE THEREOF” (D3 Bio (Wuxi) Co., Ltd., priority 2021, published 2024).
